{
  "source": "patent US20260315462A1",
  "about": "“METHODS OF TREATING RELAPSING MULTIPLE SCLEROSIS USING AN INHIBITOR OF BRUTON'S TYROSINE KINASE” (Genentech, Inc., priority 2023, published 2026)",
  "key": {"[1]": {"test_system": "new Gd-enhancing T1 lesions and new or enlarging T2-weighted lesions on brain MRI", "experiment": "Proportion of participants free from any new Gd-enhancing T1 lesions and new or enlarging T2-weighted lesions on brain MRI, Phase II RMS study (secondary endpoint)", "assay_type": "in vivo, human", "source_text": "(§1) This Phase II study was undertaken to evaluate the effect of fenebrutinib on brain magnetic resonance imaging (MRI) in participants with RMS. Participants were randomized to receive either fenebrutinib or placebo. In addition to MRI evaluations, participants were also monitored for other clinical outcomes of disease, including disability progression and MS relapse, as described more fully below.\n(§2) Study Design: This clinical trial comprised a double-blind treatment (DBT) phase, where participants were randomized in a 2:1 ratio to receive either 200 mg BID oral fenebrutinib or non-active placebo, administered for 12 weeks. Participants were directed to self-administer two 100 mg tablets in the morning and two 100 mg tablets in the evening by mouth, for a total dose of 400 mg of fenebrutinib (or placebo) every day.\n(§3) A total of 109 adults aged 18-55 with RMS were enrolled in the study: 73 in the fenebrutinib arm, and 36 in the placebo arm. […] Accordingly, the analysis of outcome for the double blind phase of the study included 70 patients in the fenebrutinib arm, and 36 patients in the placebo arm.\nMRI Measurements: The primary efficacy endpoint for this study was the total number of new gadolinium-enhancing T1 (T1Gd+) lesions on brain MRI measured at Weeks 4, 8, and 12 of administration. The secondary efficacy outcomes were (1) the total number of new or enlarging T2-weighted lesions on brain MRI measured at Weeks 4, 8, and 12, and (2) the proportion of participants free from any new Gd-enhancing T1 lesions and new or enlarging T2-weighted lesions observed on brain MRI at Weeks 4, 8, and 12. Radiologic evaluation for the primary efficacy parameter was performed using a standardized MRI protocol at screening, and at Weeks 4, 8, and 12 for each participant.\nResults: Secondary Endpoint-Proportion of Participants Free from any new Gd+ Enhancing T1 Lesions and New or Enlarging T2-weighted Lesions at Weeks 4, 8, and 12: This secondary endpoint was also met, and a summary of the analysis provided in Table 8."}, "[2]": {"test_system": "new T1-hypointense lesions on MRI", "experiment": "New T1-hypointense lesions on MRI, Phase II RMS study (exploratory endpoint)", "assay_type": "in vivo, human", "source_text": "as §1, §2, §3\n(§4) Exploratory Endpoints: Exploratory endpoints included the total number of new T1-hypointense lesions on MRI at weeks 4, 8, and 12; the fenebrutinib concentration in CSF collected at baseline and at or after Week 12; and plasma pharmacokinetics.\nResults: Exploratory Endpoint-Hypointense T1 Lesions: The number of T1 hypointense lesions was evaluated at Week 4, 8, and 12 as an exploratory endpoint. […] FIG. 4 provides bar graphs illustrating some of the data in this table and providing additional analyses. In this figure, the large arrows indicate the relative reduction (95% confidence interval) of lesions. The proportion of patients with new T1 hypointense lesions is the number of participants that have a new lesion at that specific visit alone divided by the number of participants with a scan at that specific visit alone at the indicated week. There was a 58% reduction and only 3.2% of patients with new hypointense T1 lesions at Week 12."}, "[3]": {"experiment": "Fenebrutinib concentration in CSF and plasma after 12 weeks of continuous administration (exploratory endpoint)", "assay_type": "in vivo, human", "source_text": "as §4\nResults: Exploratory Endpoint-Evaluation of CSF: Cerebrospinal samples (CSF) were taken from 11 patients following 12 weeks of continuous fenebrutinib administration. A blood plasma sample was taken at the same time for 4 of the 11 patients. The concentration of fenebrutinib in CSF at 12 Weeks was evaluated, and presented in FIG. 5 in comparison to the IC50 of fenebrutinib (active inhibitory threshold) and the IC90 of fenebrutinib (maximal inhibitory threshold) as evaluated in different in vitro assays. From the figure, (a) the mean fenebrutinib CSF concentration is following 12 weeks of continuous fenebrutinib administration; (1) the data for CD63 and CD69 assays was previously presented as Weber M S, et al. at AAN 2021 Virtual Annual Meeting, April 17-22. (P15.091); and (2) the data for the phospho-BTK assay was previously presented in Keaney J, et al. J Neuroimmune Pharmacol 2019; 14:448-461. Analysis of fenebrutinib concentration in CSF, plasma, and the ratio for the four patients for which a plasma sample was taken is provided in Table 11.\nCD63 is a myeloid lineage cell activation marker; CD69 is a B-cell activation marker; the phospho-BTK assay evaluates target engagement through inhibition of anti-IgM induced BTK Y223 autophosphorylation in human whole blood. Procedures for performing these three assays may be found in Crawford J J, et al. J Med Chem 2018; 6:2227-2245. Fenebrutinib has a dual mechanism of action, inhibiting both B-cell and myeloid lineage cell activation."}, "[4]": {"test_system": "CD63 expression on myeloid lineage cells (basophils)", "conditions": "in vitro human whole blood assay; previously presented Weber M S, et al. AAN 2021; cited from earlier work"}, "BTK": {"test_system": "BTK", "conditions": "anti-IgM induced BTK Y223 autophosphorylation in human whole blood; previously presented Keaney J, et al. 2019; cited from earlier work"}, "[5]": {"test_system": "BCR-dependent B-cell proliferation", "conditions": "in vitro cell-based experiments; cited from earlier work"}, "[6]": {"test_system": "inflammatory cytokine production from myeloid cells (including TNF-α)", "conditions": "in vitro cell-based experiments; cited from earlier work"}},
  "note": "Like-named read-outs stand apart in the source and are kept apart here.",
  "data": [
    {"smiles": "C[C@H]1CN(C2COC2)CCN1c1ccc(Nc2cc(-c3ccnc(N4CCn5c(cc6c5CC(C)(C)C6)C4=O)c3CO)cn(C)c2=O)nc1", "note": "[Fenebrutinib, (S)-2-(3′-(hydroxymethyl)-1-methyl-5-((5-(2-methyl-4-(oxetan-3-yl)piperazin-1-yl)pyridin-2-yl)amino)-6-oxo-1,6-dihydro-[3,4′-bipyridin]-2′-yl)-7,7-dimethyl-2,3,4,6,7,8-hexahydro-1H-cyclopenta[4,5]pyrrolo[1,2-a]pyrazin-1-one]", "values": [
      {"measurement": "No. of patients free from T1 Gd+ and T2-weighted lesions, Week 4", "setting": "[1]; Week 4, N = 70, placebo 21 of 36", "value": 51},
      {"measurement": "Proportion free from new T1 Gd+ and new or enlarging T2-weighted lesions, Week 4", "setting": "[1]; Week 4, N = 70, placebo 58.3%", "value": 72.9, "unit": "%"},
      {"measurement": "No. of patients free from T1 Gd+ and T2-weighted lesions, Week 8", "setting": "[1]; Week 8, N = 67, placebo 20 of 34", "value": 63},
      {"measurement": "Proportion free from new T1 Gd+ and new or enlarging T2-weighted lesions, Week 8", "setting": "[1]; Week 8, N = 67, placebo 58.8%", "value": 94.0, "unit": "%"},
      {"measurement": "No. of patients free from T1 Gd+ and T2-weighted lesions, Week 12", "setting": "[1]; Week 12, N = 63, placebo 24 of 33", "value": 61},
      {"measurement": "Proportion free from new T1 Gd+ and new or enlarging T2-weighted lesions, Week 12", "setting": "[1]; Week 12, N = 63, placebo 72.7%", "value": 96.8, "unit": "%"},
      {"measurement": "No. of patients who are free from new T1 Gd+ and New or Enlarging T2-weighted Lesions During DBT", "setting": "[1]; overall, weeks 4, 8, and 12, N = 70, placebo 18", "value": 51},
      {"measurement": "Proportion of patients free from new T1 Gd+ and new or enlarging T2-weighted lesions, overall", "setting": "[1]; overall, weeks 4, 8, and 12, N = 70, placebo 50.0%", "value": 72.9, "unit": "%"},
      {"measurement": "Odds Ratio, adjusted (free from new T1 Gd+ and new or enlarging T2-weighted lesions)", "setting": "[1]; vs placebo, weeks 4, 8, and 12, 95% CI (exact) (1.317, 13.078), p-value (exact) 0.0117", "value": 4.005},
      {"measurement": "likelihood to be free from new T1 Gd+ lesions and new or enlarging T2-weighted lesions", "setting": "[1]; weeks 4, 8, and 12, compared to placebo group", "value": "four times more likely to be free from new T1 Gd+ lesions and new or enlarging T2-weighted lesions"},
      {"measurement": "effect on T1 hypointense lesions", "setting": "[2]; Week 4, 8, and 12, compared to placebo", "value": "reduced T1 hypointense lesions at all three time points"},
      {"measurement": "proportion of patients with new T1 hypointense lesions, Week 12", "setting": "[2]; Week 12, participants with a new lesion at that visit divided by participants with a scan at that visit", "value": 3.2, "unit": "%"},
      {"measurement": "patients with new T1 hypointense lesions after Week 4", "setting": "[2]; after Week 4 of treatment, compared to placebo", "value": "few patients had new lesions after Week 4 of treatment"},
      {"measurement": "Relative Reduction of T1 hypointense lesions, Week 4", "setting": "[2]; vs placebo, Week 4, 95% CI −106%, 87%", "value": 48, "unit": "%"},
      {"measurement": "Relative Reduction of T1 hypointense lesions, Week 8", "setting": "[2]; vs placebo, Week 8, 95% CI −62%, 92%", "value": 64, "unit": "%"},
      {"measurement": "Relative Reduction of T1 hypointense lesions, Week 12", "setting": "[2]; vs placebo, Week 12, 95% CI −131%, 92%", "value": 58, "unit": "%"},
      {"measurement": "Relative Reduction of T1 hypointense lesions, Weeks 4, 8, and 12", "setting": "[2]; vs placebo, Weeks 4, 8, and 12, 95% CI −12%, 89%", "value": 64, "unit": "%"},
      {"measurement": "presence in CSF relative to in vitro activity", "setting": "[3]; after 12 weeks of continuous administration", "value": "present in the CSF at levels sufficient to reduce activation of B cells and microglia progenitor cells in vitro"},
      {"measurement": "concentration at 2016 h", "setting": "[3]; human, csf, po, 200 mg, 11 patients, following 12 weeks of continuous administration, read-out: mean fenebrutinib CSF concentration", "value": 43.1, "unit": "ng/mL"},
      {"measurement": "concentration at 2016 h", "setting": "[3]; human, csf, po, 200 mg, n = 4 patients, after 12 weeks of continuous administration, 200 mg BID oral, read-out: CSF concentration, Median (min, max)", "value": 50.2, "unit": "ng/mL"},
      {"measurement": "Kp at 2016 h", "setting": "[3]; human, csf, po, 200 mg, n = 4 patients, after 12 weeks of continuous administration, total plasma, read-out: CSF:plasma ratio, Median (min, max)", "value": 0.061},
      {"measurement": "concentration at 2016 h", "setting": "[3]; human, plasma, po, 200 mg, n = 4 patients, after 12 weeks of continuous administration, 200 mg BID oral, read-out: Total plasma concentration, Median (min, max)", "value": 691, "unit": "ng/mL"},
      {"measurement": "IC90, CD63 (myeloid lineage cell activation marker)", "setting": "[4]", "value": 0.0412, "unit": "µg/mL"},
      {"measurement": "IC90, phospho-BTK", "setting": "BTK", "value": 0.0404, "unit": "µg/mL"},
      {"measurement": "BCR-dependent B-cell proliferation", "setting": "[5]", "value": "inhibition of BCR-dependent B-cell proliferation"},
      {"measurement": "inflammatory cytokine production from myeloid cells", "setting": "[6]", "value": "reduction of inflammatory cytokine production from myeloid cells"}
    ]}
  ]
}
